From the SangsterLogP compilation

Question: Which logP does the source give for O=c1[nH]cnc2ccccc12 here?
Answer: 0.77

remark: another data set of the same source

Question: With O=C1CC(c2ccccc2)c2ccccc2N1 (stereo unspecified) as the compound, how does the logP read?
Answer: 2.79

Question: With O=c1[nH]c2ccccc2cc1-c1ccccc1 as the compound, how does the logP read?
Answer: 2.99

Question: With c1ccc(-c2nc3ccccc3o2)cc1 as the compound, how does the logP read?
Answer: 3.67

Question: With c1ccc(-c2cnc3ccccc3n2)cc1 as the compound, how does the logP read?
Answer: 3.48

Question: For c1ccc(C2CCCN2)cc1 (stereo unspecified), which logP is on record?
Answer: 1.89

Question: Which logP does the source give for O=C1Nc2ccccc2C1c1ccccc1 (stereo unspecified) here?
Answer: 2.59

Question: With O=C1Nc2ccccc2CC1c1ccccc1 (stereo unspecified) as the compound, how does the logP read?
Answer: 2.93

Question: With c1ccc(-c2nc3ccccc3[nH]2)cc1 as the compound, how does the logP read?
Answer: 3.3

Question: With O=C1CCc2ccccc2N1 as the compound, how does the logP read?
Answer: 1.34

Question: With O=c1[nH]nc(-c2ccccc2)c2ccccc12 as the compound, how does the logP read?
Answer: 2.48

Question: With O=C1C=CC(=O)C(c2ccccc2)=C1 as the compound, how does the logP read?
Answer: 1.95

Question: With O=C1CCC(c2ccccc2)CC1 as the compound, how does the logP read?
Answer: 2.3

Question: For c1ccc(-c2ncc3ccccc3n2)cc1, which logP is on record?
Answer: 3.42

Question: With O=C1NC(=O)C(c2ccccc2)C(=O)N1 as the compound, how does the logP read?
Answer: -0.17

Question: Which logP does the source give for O=C1NC(=O)c2cc(-c3ccccc3)ccc21 here?
Answer: 2.97

Question: For c1ccc(C2CCNCC2)cc1, which logP is on record?
Answer: 2.39

Question: With c1ccc(-c2ccncc2)cc1 as the compound, how does the logP read?
Answer: 2.58

Question: For c1ccc(-c2c[nH]nn2)cc1, which logP is on record?
Answer: 1.91

Question: For c1ccc(-c2nccs2)cc1, which logP is on record?
Answer: 2.77

Question: Which logP does the source give for c1ccc(-c2nc[nH]n2)cc1 here?
Answer: 1.54
